Measured values as given in article PMC6270304, “Synthesis, Structure and Cytotoxic Activity of New Acetylenic Derivatives of Betulin” (Molecules, 2013).
≈ marks a conversion by molar mass, not a printed value.

Legend:
[1] = Antiproliferative assay in vitro (SRB); assay type: cell-based, mouse; details: mouse; Balb3T3 normal fibroblasts; SRB; Neg = negative in the concentration used; read-out: Cytotoxic activity IC50, Murine Balb3T3
Protocol: (§1) Cytotoxic activities of all newly synthesized compounds including betulin (1) were tested in SRB or MTT (in the case of leukemia cells) assay for their antiproliferative activity in vitro against three human cancer cell lines: SW707 (colorectal adenocarcinoma), CCRF/CEM (leukemia), T47D (breast cancer), and murine leukemia P388 as well as Balb3T3 normal fibroblasts cell lines. […] A value of less than 4 μg/mL was considered as an antiproliferative activity criterion for synthetic compounds [31].
(§2) The following established in vitro cell lines were applied: SW707 (human colorectal adenocarcinoma), CCRF/CEM (human leukemia), T47D (human breast cancer), P388 (mouse leukemia) and Balb3T3 (normal mouse fibroblasts). All lines were obtained from the American Type Culture Collection (Rockville, MD, USA) and maintained at the Cell Culture Collection of the Institute of Immunology and Experimental Therapy (Wroclaw, Poland).
(§3) Twenty-four hours before addition of the tested agents, the cells were plated in 96-well plates (Sarstedt, Numbrecht, Germany) at a density of 10^4 cells per well in 100 μL of culture medium. The cells were cultured in the opti-MEM medium supplemented with 2 mM glutamine (Gibco, Grand Island, NY, USA), streptomycin (50 μg/mL), penicillin (50 U/mL) (both antibiotics from Polfa, Tarchomin, Poland) and 5% fetal calf serum (Gibco). The cell cultures were maintained at 37 °C in humid atmosphere saturated with 5% CO2.
(§4) The compounds were dissolved in DMSO and culture medium (1:9) to the concentration of 1 mg/mL, and subsequently diluted in culture medium to reach the required concentrations (ranging from […]).
(§5) The in vitro cytotoxic effect of all agents was examined using the SRB assay for adherent cells and MTT assay for leukemia cells as described by Wietrzyk et al.. Each compound in given concentration was tested in triplicates in each experiment, which was repeated 3–5 times.

[2] = tested on: SW707 (human colorectal adenocarcinoma); assay: Antiproliferative assay in vitro (SRB); assay type: cell-based; details: Homo sapiens, SW707, read-out: Cytotoxic activity IC50, Human SW707
Protocol: as §1, §2, §3, §4, §5

[3] = tested on: T47D (human breast cancer); assay: Antiproliferative assay in vitro (SRB); assay type: cell-based; details: Homo sapiens, T47D, read-out: Cytotoxic activity IC50, Human T47D
Protocol: as §1, §2, §3, §4, §5

[4] = tested on: investigated cancer cell lines (T47D, CCRF/CEM, SW707, P388, Balb3T3); assay: cells; assay type: cell-based, human and murine; details: Mus musculus; all cell lines except leukemia P388; read-out: IC50 values range over investigated cell lines
Protocol: as §1, §2, §3, §4, §5

P388 (mouse leukemia) = assay: Antiproliferative assay in vitro (MTT); assay type: cell-based
Protocol: as §1, §2, §3, §4, §5

[5] = tested on: CCRF/CEM (human leukemia); assay: Antiproliferative assay in vitro (MTT); assay type: cell-based; details: Homo sapiens, CCRF-CEM, read-out: Cytotoxic activity IC50, Human CCRF/CEM
Protocol: as §1, §2, §3, §4, §5

C=C(C)[C@@H]1CC[C@]2(CO)CC[C@]3(C)[C@H](CC[C@@H]4[C@@]5(C)CC[C@H](O)C(C)(C)[C@@H]5CC[C@]43C)[C@@H]12 [Compound 1, lup-20(29)-ene-3β,28-diol, reference compound]
IC50 [1]: 47.3 ± 7.9 µg/mL (≈ 107 µM)
IC50 [2]: 22.9 ± 15.4 µg/mL (≈ 51.7 µM)
IC50 [3]: 32.4 ± 10.7 µg/mL (≈ 73.2 µM)
IC50 [4]: 10.9 to 47.3 µg/mL (≈ 24.6 to 107 µM)
IC50 (P388 (mouse leukemia); Mus musculus, P388, read-out: Cytotoxic activity IC50, Murine P388): 5.5 ± 3.3 µg/mL (≈ 12.4 µM)
selectivity index (SI) (P388 (mouse leukemia); ratio IC50 of normal fibroblast (Balb3T3) / IC50 on P388): 8.6
IC50 [5]: 10.9 ± 5.5 µg/mL (≈ 24.6 µM)
